Assay results: patent US11999699B2, “Substituted pyrazole amides” (GRUENENTHAL GMBH, priority 2021, dated 2024)

Target: T1, human NaV1.8 (Homo sapiens, UniProt Q9Y5Y9)
T1 construct: The following NaV1.8 recombinant cell line was used for recordings: HEK-NaV1.8 (NM 006514.1); expressed in transfected cells; host or cells: HEK (recombinant cell line HEK-NaV1.8)
Assay: Electrophysiology: automated whole-cell voltage-clamp (patch clamp, Qube384) recordings of sodium currents in HEK-NaV1.8 cells
Format: cell-based
Conditions: potency data either taken from inactivated or resting state, read-out: Potency category (human NaV1.8 IC50)
In short: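 Automated whole-cell patch clamp at room temperature on HEK cells expressing human NaV1.8, with 0.3% DMSO vehicle controls. State-dependent protocol from −120 mV tested resting (P1) and half-inactivated (P2, 4 s at V1/2) channels, plus 40-pulse trains at 10 and 20 Hz. Values after ~12 min compound exposure were normalised to baseline and corrected for vehicle run-down; IC50 from a 4-parameter logistic fit, taken from inactivated or resting state.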

T1 sequence (Q9Y5Y9 whole entry): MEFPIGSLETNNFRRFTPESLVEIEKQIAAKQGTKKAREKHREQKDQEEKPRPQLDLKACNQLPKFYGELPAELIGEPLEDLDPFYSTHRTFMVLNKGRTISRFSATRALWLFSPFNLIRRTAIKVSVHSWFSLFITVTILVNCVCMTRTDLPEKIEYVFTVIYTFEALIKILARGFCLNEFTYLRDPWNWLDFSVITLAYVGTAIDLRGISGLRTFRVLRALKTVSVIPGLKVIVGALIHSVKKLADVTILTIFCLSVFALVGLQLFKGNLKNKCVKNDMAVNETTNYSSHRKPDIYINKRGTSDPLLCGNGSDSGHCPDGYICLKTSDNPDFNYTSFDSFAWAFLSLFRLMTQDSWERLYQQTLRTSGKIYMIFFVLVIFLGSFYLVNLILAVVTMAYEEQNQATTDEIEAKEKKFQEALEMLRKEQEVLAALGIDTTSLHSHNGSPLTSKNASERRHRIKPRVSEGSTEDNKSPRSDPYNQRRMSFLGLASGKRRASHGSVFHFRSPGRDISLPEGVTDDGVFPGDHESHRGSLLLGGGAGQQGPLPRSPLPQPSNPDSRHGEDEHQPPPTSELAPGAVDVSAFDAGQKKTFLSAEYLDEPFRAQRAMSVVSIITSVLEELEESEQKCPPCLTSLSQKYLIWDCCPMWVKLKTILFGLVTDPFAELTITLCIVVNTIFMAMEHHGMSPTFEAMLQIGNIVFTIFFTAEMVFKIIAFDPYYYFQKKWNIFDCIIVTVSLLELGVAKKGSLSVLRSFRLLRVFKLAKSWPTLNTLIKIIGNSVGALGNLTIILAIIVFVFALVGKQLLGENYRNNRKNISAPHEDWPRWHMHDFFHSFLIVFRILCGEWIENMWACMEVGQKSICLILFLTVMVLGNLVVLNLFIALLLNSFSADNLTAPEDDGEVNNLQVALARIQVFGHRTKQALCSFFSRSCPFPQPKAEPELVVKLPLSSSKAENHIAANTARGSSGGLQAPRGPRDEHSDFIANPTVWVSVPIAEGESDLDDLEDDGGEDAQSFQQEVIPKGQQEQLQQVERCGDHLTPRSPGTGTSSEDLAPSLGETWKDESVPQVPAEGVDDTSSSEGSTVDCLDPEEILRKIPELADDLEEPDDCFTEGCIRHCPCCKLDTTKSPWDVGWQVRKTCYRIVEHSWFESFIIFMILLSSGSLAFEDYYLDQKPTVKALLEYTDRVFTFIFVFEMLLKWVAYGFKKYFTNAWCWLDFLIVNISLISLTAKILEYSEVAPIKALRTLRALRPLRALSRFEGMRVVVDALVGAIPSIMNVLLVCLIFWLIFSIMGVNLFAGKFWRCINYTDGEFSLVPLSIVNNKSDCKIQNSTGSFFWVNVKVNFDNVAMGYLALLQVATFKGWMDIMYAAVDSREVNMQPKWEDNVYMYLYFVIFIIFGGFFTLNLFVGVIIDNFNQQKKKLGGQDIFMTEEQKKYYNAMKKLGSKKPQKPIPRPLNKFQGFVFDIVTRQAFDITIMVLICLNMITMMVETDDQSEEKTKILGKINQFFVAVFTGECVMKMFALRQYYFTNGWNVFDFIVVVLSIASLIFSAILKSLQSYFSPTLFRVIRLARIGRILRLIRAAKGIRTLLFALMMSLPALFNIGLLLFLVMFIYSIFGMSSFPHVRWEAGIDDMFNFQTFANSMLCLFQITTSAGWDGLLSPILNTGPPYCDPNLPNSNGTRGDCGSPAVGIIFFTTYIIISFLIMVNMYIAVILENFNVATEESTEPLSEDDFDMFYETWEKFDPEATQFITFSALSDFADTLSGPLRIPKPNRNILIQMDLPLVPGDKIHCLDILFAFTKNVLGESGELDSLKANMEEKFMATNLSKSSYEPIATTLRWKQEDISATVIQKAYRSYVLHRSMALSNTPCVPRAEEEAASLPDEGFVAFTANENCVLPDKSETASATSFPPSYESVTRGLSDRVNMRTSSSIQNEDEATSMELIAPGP
T1 sequence (Q9NY72 23-215 partner): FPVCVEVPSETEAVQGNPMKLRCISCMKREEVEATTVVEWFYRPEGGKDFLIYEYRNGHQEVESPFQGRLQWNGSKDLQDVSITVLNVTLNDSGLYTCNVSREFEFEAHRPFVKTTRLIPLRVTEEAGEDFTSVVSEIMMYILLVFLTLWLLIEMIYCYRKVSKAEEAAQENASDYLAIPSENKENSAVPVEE

SMILES | IC50
Cc1nn(CC2CCC(F)(F)CC2)c(C(=O)Nc2cccc(C(N)=O)n2)c1C(F)(F)F [SC-253, 6-(1-((4,4-difluorocyclohexyl)methyl)-3-methyl-4-(trifluoromethyl)-1H-pyrazole-5-carboxamido)picolinamide] | 1 to 10 µM
Cc1nn(CC2CCC(F)(F)CC2)c(C(=O)Nc2ncc(C(N)=O)o2)c1C(F)(F)F [SC-256, 2-(1-((4,4-difluorocyclohexyl)methyl)-3-methyl-4-(trifluoromethyl)-1H-pyrazole-5-carboxamido)oxazole-5-carboxamide] | 1 to 10 µM
NC(=O)c1cc(NC(=O)c2c(Cl)c(C3CC3)nn2CC2CCOCC2)ccn1 [SC-261, 4-(4-chloro-3-cyclopropyl-1-((tetrahydro-2H-pyran-4-yl)methyl)-1H-pyrazole-5-carboxamido)picolinamide] | 0.1 to 1 µM
NS(=O)(=O)c1cccc(NC(=O)c2c(C(F)(F)F)c(C(F)F)nn2CC2CCC(F)(F)C2)c1 (centres unmarked) [SC-262, 1-((3,3-difluorocyclopentyl)methyl)-3-(difluoromethyl)-N-(3-sulfamoylphenyl)-4-(trifluoromethyl)-1H-pyrazole-5-carboxamide] | ≤ 0.1 µM
CS(=O)(=O)c1cc(NC(=O)c2c(C(F)(F)F)c(C3CC3)nn2CC2CCCO2)ccn1 (centres unmarked) [SC-263, 3-cyclopropyl-N-(2-(methylsulfonyl)pyridin-4-yl)-1-((tetrahydrofuran-2-yl)methyl)-4-(trifluoromethyl)-1H-pyrazole-5-carboxamide] | 0.1 to 1 µM
Cc1nn(CC2CCC(F)(F)CC2)c(C(=O)Nc2cc(C(N)=O)c(F)cn2)c1C(F)(F)F [SC-268, 2-(1-((4,4-difluorocyclohexyl)methyl)-3-methyl-4-(trifluoromethyl)-1H-pyrazole-5-carboxamido)-5-fluoroisonicotinamide] | 1 to 10 µM
COc1c(C(F)(F)F)nn(CC2CCC(F)(F)C2)c1C(=O)Nc1ccnc(C(N)=O)c1 (centres unmarked) [SC-269, 4-(1-((3,3-difluorocyclopentyl)methyl)-4-methoxy-3-(trifluoromethyl)-lH-pyrazole-5-carboxamido)picolinamide] | 0.1 to 1 µM
COc1nn(CC2CCC(F)(F)C2)c(C(=O)Nc2ccnc(C(N)=O)c2)c1C(F)(F)F (centres unmarked) [SC-273, 4-(1-((3,3-difluorocyclopentyl)methyl)-3-methoxy-4-(trifluoromethyl)-lH-pyrazole-5-carboxamido)picolinamide] | ≤ 0.1 µM
NS(=O)(=O)c1cc(NC(=O)c2c(C(F)(F)F)c(C3CC3)nn2CC2CC(F)(F)C2)ccn1 [SC-282, 3-cyclopropyl-1-((3,3-difluorocyclobutyl)methyl)-N-(2-sulfamoylpyridin-4-yl)-4-(trifluoromethyl)-1H-pyrazole-5-carboxamide] | ≤ 0.1 µM
NC(=O)c1cc(NC(=O)c2c(C(F)(F)F)c(OC3CC(F)(F)C3)nn2CC2CCC(F)(F)C2)ccn1 (centres unmarked) [SC-283, 4-(3-(3,3-difluorocyclobutoxy)-1-((3,3-difluorocyclopentyl)methyl)-4-(trifluoromethyl)-1H-pyrazole-5-carboxamido)picolinamide] | ≤ 0.1 µM
Cc1c(C(C)(F)F)nn(CC2CC(F)(F)C2)c1C(=O)Nc1cccc(S(N)(=O)=O)c1 [SC-295, 1-((3,3-difluorocyclobutyl)methyl)-3-(1,1-difluoroethyl)-4-methyl-N-(3-sulfamoylphenyl)-1H-pyrazole-5-carboxamide] | ≤ 0.1 µM
NC(=O)c1cc(NC(=O)c2c(OCC(F)(F)F)c(C3CC3)nn2CC2CCC(F)(F)C2)ccn1 (centres unmarked) [SC-298, 4-(3-cyclopropyl-1-((3,3-difluorocyclopentyl)methyl)-4-(2,2,2-trifluoroethoxy)-1H-pyrazole-5-carboxamido)picolinamide] | 1 to 10 µM
Cc1c(C(C)(F)F)nn(CC2(C(F)(F)F)CC(F)(F)C2)c1C(=O)Nc1ccnc(C(N)=O)c1 [SC-299, 4-(1-((3,3-difluoro-1-(trifluoromethyl)cyclobutyl)methyl)-3-(1,1-difluoroethyl)-4-methyl-1H-pyrazole-5-ca±oxamido)picolinamide] | ≤ 0.1 µM

The next lines start with the values.

IC50 | SMILES
0.1 to 1 µM | Cc1cnc(C(N)=O)cc1NC(=O)c1c(C(F)(F)F)c(C)nn1CC1CCC(F)(F)CC1 [SC-249, 4-(1-((4,4-difluorocyclohexyl)methyl)-3-methyl-4-(trifluoromethyl)-1H-pyrazole-5-carboxamido)-5-methyipicolinamide]
≤ 0.1 µM | CS(=O)(=O)c1cc(NC(=O)c2c(C(F)(F)F)c(C3CC3)nn2CC2CCC(F)(F)CC2)ccn1 [SC-250, 3-cyclopropyl-1-((4,4-difluorocyclohexyl)methyl)-N-(2-(methylsulfonyl)pyridin-4-yl)-4-(trifluoromethyl)-1H-pyrazole-5-carboxamide]
1 to 10 µM | Cc1ncc(NC(=O)c2c(C(F)(F)F)c(C)nn2CC2CCC(F)(F)CC2)cc1C(N)=O [SC-251, 5-(1-((4,4-difluorocyclohexyl)methyl)-3-methyl-4-(trifluoromethyl)-1H-pyrazole-5-carboxamido)-2-methylnicotinamide]
0.1 to 1 µM | Cc1cc(NC(=O)c2c(C(F)(F)F)c(C)nn2CC2CCC(F)(F)CC2)ccn1 [SC-252, 1-((4,4-difluorocyclohexyl)methyl)-3-methyl-N-(2-methylpyridin-4-yl)-4-(trifluoromethyl)-1H-pyrazole-5-carboxamide]
1 to 10 µM | CS(=O)(=O)c1cccc(NC(=O)c2c(C(F)(F)F)cnn2CC2(O)CCCCC2)c1 [SC-255, 1-((1-hydroxycyclohexyl)methyl)-N-(3-(methylsulfonyl)phenyl)-4-(trifluoromethyl)-1H-pyrazole-5-carboxamide]
0.1 to 1 µM | Cc1nn(CC2CCC(F)(F)CC2)c(C(=O)Nc2ccc(C(N)=O)nc2)c1C(F)(F)F [SC-257, 5-(1-((4,4-difluorocyclohexyl)methyl)-3-methyl-4-(trifluoromethyl)-1H-pyrazole-5-carboxamido)picolinamide]
0.1 to 1 µM | CNC(=O)c1cc(NC(=O)c2c(C(F)(F)F)c(C)nn2CC2CCC(F)(F)CC2)ccn1 [SC-260, 4-(1-((4,4-difluorocyclohexyl)methyl)-3-methyl-4-(trifluoromethyl)-1H-pyrazole-5-carboxamido)-N-methyIpicolinamide]
≤ 0.1 µM | NS(=O)(=O)c1cccc(NC(=O)c2c(C(F)(F)F)c(C3CC3)nn2CC2CCCCO2)c1 (centres unmarked) [SC-264, 3-cyclopropyl-N-(3-sulfamoylphenyl)-1-((tetrahydro-2H-pyran-2-yl)methyl)-4-(trifluoromethyl)-1H-pyrazole-5-carboxamide]
≤ 0.1 µM | COc1nn(CC2CCC(F)(F)C2)c(C(=O)Nc2cccc(S(N)(=O)=O)c2)c1C(F)(F)F (centres unmarked) [SC-265, 1-((3,3-difluorocyclopentyl)methyl)-3-methoxy-N-(3-sulfamoyIphenyl)-4-(trifluoromethyl)-1H-pyrazole-5-carboxamide]
≤ 0.1 µM | NC(=O)c1cc(NC(=O)c2c(C(F)(F)F)c(C3CC3)nn2CC2CC2)ccn1 [SC-266, 4-(3-cyclopropyl-1-(cyclopropylmethyl)-4-(trifluoromethyl)-1H-pyrazole-5-carboxamido)picolinamide]
0.1 to 1 µM | Cc1cc(NC(=O)c2c(C(F)(F)F)c(C)nn2CC2CCC(F)(F)CC2)cc(C(N)=O)n1 [SC-267, 4-(1-((4,4-difluorocyclohexyl)methyl)-3-methyl-4-(trifluoromethyl)-1H-pyrazole-5-carboxamido)-6-methylpicolinamide]
≤ 0.1 µM | NC(=O)c1cc(NC(=O)c2c(C(F)(F)F)c(C3CC3)nn2CC2CC(F)(F)C2)ccc1F [SC-274, N-(3-carbamoyl-4-fluorophenyl)-3-cyclopropyl-1-((3,3-difluorocyclobutyl)methyl)-4-(trifluoromethyl)-1H-pyrazole-5-carboxamide]
≤ 0.1 µM | CS(=O)(=O)c1cc(NC(=O)c2c(C(F)F)c(C3CC3)nn2CC2CCC(F)(F)C2)ccn1 (centres unmarked) [SC-275, 3-cyclopropyl-1-((3,3-difluorocyclopentyl)methyl)-4-(difluoromethyl)-N-(2-(methylsulfonyl)pyridin-4-yl)-1H-pyrazole-5-carboxamide]
≤ 0.1 µM | NS(=O)(=O)c1cccc(NC(=O)c2c(C(F)(F)F)c(C3CC3)nn2CC2CC(F)(F)C2)c1 [SC-276, 3-cyclopropyl-1-((3,3-difluorocyclobutyl)methyl)-N-(3-sulfamoyIphenyl)-4-(trifluoromethyl)-lH-pyrazole-5-carboxamide]
0.1 to 1 µM | Cc1nn(CC2CCC(F)(F)CC2)c(C(=O)Nc2cnnc(S(C)(=O)=O)c2)c1C(F)(F)F [SC-280, 1-((4,4-difluorocyclohexyl)methyl)-3-methyl-N-(6-(methylsulfonyl)pyridazin-4-yl)-4-(trifluoromethyl)-1H-pyrazole-5-carboxamide]
1 to 10 µM | Cc1nn(CC2CCC(F)(F)CC2)c(C(=O)Nc2ccnc(C(N)=O)c2F)c1C(F)(F)F [SC-289, 4-(1-((4,4-difluorocyclohexyl)methyl)-3-methyl-4-(trifluoromethyl)-1H-pyrazole-5-carboxamido)-3-fluoropicolinamide]
0.1 to 1 µM | CS(=O)(=O)c1cc(NC(=O)c2c(C(F)(F)F)c(C3CC3)nn2CC2CC(OC(F)F)C2)ccn1 (centres unmarked) [SC-290, 3-cyclopropyl-1-((3-(difluoromethoxy)cyclobutyl)methyl)-N-(2-(methyIsulfonyl)pyridin-4-yl)-4-(trifluoromethyl)-1H-pyrazole-5-carboxamide]
1 to 10 µM | Cc1nn(CC2CCC(F)(F)CC2)c(C(=O)Nc2ccnc(C(N)=O)c2C)c1C(F)(F)F [SC-294, 4-(1-((4,4-difluorocyclohexyl)methyl)-3-methyl-4-(trifluoromethyl)-1H-pyrazole-5-carboxamido)-3-methylpicolinamide]
≤ 0.1 µM | CCc1nn(CC2CCC(F)(F)C2)c(C(=O)Nc2ccnc(S(C)(=O)=O)c2)c1C(F)(F)F (centres unmarked) [SC-297, 1-((3,3-difluorocyclopentyl)methyl)-3-ethyl-N-(2-(methylsulfonyl)pyridin-4-yl)-4-(trifluoromethyl)-1H-pyrazole-5-carboxamide]
